How the values were obtained:
Conditions in all cases: 500 mM ethanol, 0.5 mM acetyl-CoA, pH 7.4, 30 °C
Atf-K.l = target: T1, Atf-K.l (Kluyveromyces lactis, UniProt Q6CJX7); assay: headspace GC of ethyl acetate, whole cell lysate; assay type: biochemical
T1 construct: gene KLLA0_F15202g; C-terminal GFP fusion (reporter); expressed in S. cerevisiae (pYKLG) and E. coli BL21(DE3) (pKLG)
T1 sequence (Q6CJX7 1-517): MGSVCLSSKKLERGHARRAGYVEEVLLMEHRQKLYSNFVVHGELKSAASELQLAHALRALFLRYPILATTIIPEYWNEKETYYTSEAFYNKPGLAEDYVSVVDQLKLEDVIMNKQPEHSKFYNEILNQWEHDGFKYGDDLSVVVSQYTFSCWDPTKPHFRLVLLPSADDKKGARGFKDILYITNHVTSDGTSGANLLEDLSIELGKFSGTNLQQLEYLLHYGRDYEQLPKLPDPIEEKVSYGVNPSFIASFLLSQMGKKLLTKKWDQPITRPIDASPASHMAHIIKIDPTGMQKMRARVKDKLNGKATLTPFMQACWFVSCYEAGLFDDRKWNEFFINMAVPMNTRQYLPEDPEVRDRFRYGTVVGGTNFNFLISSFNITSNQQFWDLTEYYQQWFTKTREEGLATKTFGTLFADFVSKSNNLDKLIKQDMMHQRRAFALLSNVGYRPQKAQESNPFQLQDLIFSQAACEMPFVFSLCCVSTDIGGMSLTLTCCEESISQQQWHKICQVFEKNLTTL

Atf-P.a = target: T2, Atf-P.a (Hansenula anomala, UniProt H6UWN0); assay: headspace GC of ethyl acetate, whole cell lysate; assay type: biochemical
T2 construct: gene WAN_10494; C-terminal GFP fusion (reporter); expressed in S. cerevisiae (pYPAG) and E. coli BL21(DE3) (pPAG)
T2 sequence (H6UWN0 1-427): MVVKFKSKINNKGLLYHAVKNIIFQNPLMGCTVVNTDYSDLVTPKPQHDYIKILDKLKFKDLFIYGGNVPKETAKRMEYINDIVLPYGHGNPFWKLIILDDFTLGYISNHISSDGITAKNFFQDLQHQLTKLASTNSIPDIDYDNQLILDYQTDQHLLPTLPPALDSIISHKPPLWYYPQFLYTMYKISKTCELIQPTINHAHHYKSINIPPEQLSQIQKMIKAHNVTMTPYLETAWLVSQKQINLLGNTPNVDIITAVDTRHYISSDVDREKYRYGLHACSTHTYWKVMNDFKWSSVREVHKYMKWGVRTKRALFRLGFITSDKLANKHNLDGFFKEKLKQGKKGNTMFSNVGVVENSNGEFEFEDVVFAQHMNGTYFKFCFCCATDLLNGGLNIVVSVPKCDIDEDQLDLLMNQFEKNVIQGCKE

Atf-S.p = target: T3, Atf-S.p (Saccharomyces pastorianus, UniProt Q12678); assay: headspace GC of ethyl acetate, whole cell lysate; assay type: biochemical
T3 construct: gene ATF1_2; C-terminal GFP fusion (reporter); expressed in S. cerevisiae (pYSPG) and E. coli BL21(DE3) (pSPG)
T3 sequence (Q12678 1-545): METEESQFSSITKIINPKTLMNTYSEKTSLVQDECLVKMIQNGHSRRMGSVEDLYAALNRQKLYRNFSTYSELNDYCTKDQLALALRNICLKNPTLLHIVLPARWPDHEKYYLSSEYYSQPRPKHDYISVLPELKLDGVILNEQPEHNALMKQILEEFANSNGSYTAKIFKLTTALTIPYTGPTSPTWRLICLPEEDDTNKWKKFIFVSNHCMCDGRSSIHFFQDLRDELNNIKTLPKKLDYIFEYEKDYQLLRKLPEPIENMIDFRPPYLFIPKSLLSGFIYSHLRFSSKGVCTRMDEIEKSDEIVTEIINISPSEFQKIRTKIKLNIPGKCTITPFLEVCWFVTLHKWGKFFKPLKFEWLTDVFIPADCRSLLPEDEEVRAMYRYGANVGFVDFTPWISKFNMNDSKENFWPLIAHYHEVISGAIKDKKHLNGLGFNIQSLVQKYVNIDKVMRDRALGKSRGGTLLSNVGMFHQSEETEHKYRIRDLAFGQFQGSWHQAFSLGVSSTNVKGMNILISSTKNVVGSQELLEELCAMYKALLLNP

Atf1-S.c = target: T4, Atf1-S.c (Saccharomyces cerevisiae, UniProt P40353)
T4 sequence (P40353 1-525): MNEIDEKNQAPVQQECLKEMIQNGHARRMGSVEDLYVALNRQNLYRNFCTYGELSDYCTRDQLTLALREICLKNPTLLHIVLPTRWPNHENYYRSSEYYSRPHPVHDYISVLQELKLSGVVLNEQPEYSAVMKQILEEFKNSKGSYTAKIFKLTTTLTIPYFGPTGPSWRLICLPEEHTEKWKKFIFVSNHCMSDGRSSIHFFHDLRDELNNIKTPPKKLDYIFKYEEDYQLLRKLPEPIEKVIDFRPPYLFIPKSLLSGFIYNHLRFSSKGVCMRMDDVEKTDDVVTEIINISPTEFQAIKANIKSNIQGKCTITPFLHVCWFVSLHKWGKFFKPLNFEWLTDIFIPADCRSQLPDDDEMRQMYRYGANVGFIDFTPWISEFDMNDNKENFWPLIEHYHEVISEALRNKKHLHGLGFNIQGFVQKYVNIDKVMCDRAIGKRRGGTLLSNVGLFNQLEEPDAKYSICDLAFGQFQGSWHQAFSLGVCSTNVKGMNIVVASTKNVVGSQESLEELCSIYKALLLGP

Atf-S.l = target: T5, Atf-S.l (Solanum lycopersicum, UniProt Q6QLX4); assay: headspace GC of ethyl acetate, whole cell lysate; assay type: biochemical
T5 construct: gene AAT1; C-terminal GFP fusion (reporter); expressed in S. cerevisiae (pYSLG) and E. coli BL21(DE3) (pSLG); N-terminus from primer MANILPI
T5 sequence (Q6QLX4 1-442): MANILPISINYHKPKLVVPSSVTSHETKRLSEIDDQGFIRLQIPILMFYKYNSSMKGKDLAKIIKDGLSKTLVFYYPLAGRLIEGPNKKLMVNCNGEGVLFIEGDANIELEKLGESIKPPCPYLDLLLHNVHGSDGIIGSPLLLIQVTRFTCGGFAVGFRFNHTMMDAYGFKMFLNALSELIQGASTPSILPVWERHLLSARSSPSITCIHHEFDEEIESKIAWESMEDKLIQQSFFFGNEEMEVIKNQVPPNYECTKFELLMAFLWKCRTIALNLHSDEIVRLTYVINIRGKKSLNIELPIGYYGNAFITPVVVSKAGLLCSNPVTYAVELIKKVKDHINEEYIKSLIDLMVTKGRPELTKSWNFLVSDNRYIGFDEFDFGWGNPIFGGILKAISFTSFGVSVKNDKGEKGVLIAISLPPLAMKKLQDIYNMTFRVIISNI

Atf2-S.c = target: T6, Atf2-S.c (Saccharomyces cerevisiae, UniProt P53296)
T6 sequence (P53296 1-535): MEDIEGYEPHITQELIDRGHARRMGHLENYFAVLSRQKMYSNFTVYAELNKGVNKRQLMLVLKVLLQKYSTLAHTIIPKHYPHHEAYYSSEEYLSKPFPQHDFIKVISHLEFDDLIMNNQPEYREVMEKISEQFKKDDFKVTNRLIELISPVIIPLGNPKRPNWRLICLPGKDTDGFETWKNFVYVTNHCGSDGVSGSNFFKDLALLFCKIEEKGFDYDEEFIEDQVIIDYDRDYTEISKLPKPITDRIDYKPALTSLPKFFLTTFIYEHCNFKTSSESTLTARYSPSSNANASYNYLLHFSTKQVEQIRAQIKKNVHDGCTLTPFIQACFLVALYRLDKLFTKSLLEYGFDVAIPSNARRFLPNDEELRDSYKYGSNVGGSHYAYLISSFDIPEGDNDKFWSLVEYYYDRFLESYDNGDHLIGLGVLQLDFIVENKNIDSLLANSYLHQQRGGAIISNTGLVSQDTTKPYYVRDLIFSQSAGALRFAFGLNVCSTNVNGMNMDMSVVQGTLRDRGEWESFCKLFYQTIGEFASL

CC(=O)SCCNC(=O)CCNC(=O)[C@H](O)C(C)(C)COP(=O)(O)OP(=O)(O)OC[C@H]1O[C@@H](n2cnc3c(N)ncnc32)[C@H](O)[C@@H]1OP(=O)(O)O [acetyl-CoA]
headspace GC of ethyl acetate, whole cell lysate (Atf-K.l): AATase activity was measured using ethanol and acetyl-CoA as substrates | headspace GC of ethyl acetate, whole cell lysate (Atf-P.a): AATase activity was measured using ethanol and acetyl-CoA as substrates | headspace GC of ethyl acetate, whole cell lysate (Atf-S.p): AATase activity was measured using ethanol and acetyl-CoA as substrates | headspace GC of ethyl acetate, whole cell lysate (Atf1-S.c): AATase activity was measured using ethanol and acetyl-CoA as substrates | headspace GC of ethyl acetate, whole cell lysate (Atf-S.l): AATase activity was measured using ethanol and acetyl-CoA as substrates | headspace GC of ethyl acetate, whole cell lysate (Atf2-S.c): AATase activity was measured using ethanol and acetyl-CoA as substrates

Source: article PMC4367896, “Microbial host selection affects intracellular localization and activity of alcohol-O-acetyltransferase” (Microbial Cell Factories, 2015)
